4 compounds from the NIST ThermoML archive (doi:10.1016/j.fluid.2007.06.008) can be followed below.

Numbers after ± are expanded uncertainties.

For series [1] the following is noted: Liquid; for mass density: 101.33 kPa; for Normal boiling temperature: Ebulliometric method (Recirculating still).
The nature of series [2]: refractive index (Na D-line) (dimensionless). Particulars: 298.15 K; 101.33 kPa; Liquid; Standard Abbe refractometry.

Broadly, the mass density is mass per unit of volume. What is called refractive index is a measure of how strongly the sample bends light.

As to `CC(C)(C)O` [2-methylpropan-2-ol], the mass density in series [1] (303.15 K) came out at 775.4 ± 0.66 kg/m3. The Normal boiling temperature in series [1] stood at 82.18 ± 0.1 °C. In addition, the refractive index in series [2] amounted to 1.3851 ± 0.0005.

Regarding `CCC(C)CC` [3-methylpentane], in series [1] (298.15 K), the mass density is recorded as 659.62 ± 1.4 kg/m3. Besides, in series [1], the Normal boiling temperature worked out at 63.2 ± 0.1 °C. The refractive index in series [2] was found to be 1.3744 ± 0.0005.

Take `CCO` [ethanol]: the mass density in series [1] (298.15 K) is 785.04 ± 0.5 kg/m3. The Normal boiling temperature in series [1] is 78.26 ± 0.1 °C. The refractive index in series [2] amounted to 1.3598 ± 0.0007.

As to `CC1CCCCC1` [methylcyclohexane], the mass density in series [1] (298.15 K) is reported as 764.92 ± 1.1 kg/m3. Also, the Normal boiling temperature in series [1] worked out at 100.81 ± 0.1 °C. For the same compound, the refractive index in series [2] is on record as 1.4208 ± 0.0005.
